Reference: publication PMC9841530 (Journal of Medicinal Chemistry, 2022)
Values after ≈ are worked out from the molar mass of the structure shown. Where two headings read alike, the source gives them in different places. Values belong to the compound of their own block, whether it stands above or below them.

Columns and labels:
[1] = Thermodynamic solubility in PBS; format: physicochemical; conditions: for Solubility: PBS (pH 7.5), concentration after 90 min of vortexing, ND: not detected; for fold more soluble than Cact-3: PBS solubility vs Cact-3
human wild-type CFTR = human wild-type CFTR (Homo sapiens, UniProt P13569); test: YFP fluorescence quenching assay of CFTR channel activity; format: cell-based; conditions: for fold less potent than Cact-3: YFP EC50 vs Cact-3
Chain of human wild-type CFTR (P13569 whole entry): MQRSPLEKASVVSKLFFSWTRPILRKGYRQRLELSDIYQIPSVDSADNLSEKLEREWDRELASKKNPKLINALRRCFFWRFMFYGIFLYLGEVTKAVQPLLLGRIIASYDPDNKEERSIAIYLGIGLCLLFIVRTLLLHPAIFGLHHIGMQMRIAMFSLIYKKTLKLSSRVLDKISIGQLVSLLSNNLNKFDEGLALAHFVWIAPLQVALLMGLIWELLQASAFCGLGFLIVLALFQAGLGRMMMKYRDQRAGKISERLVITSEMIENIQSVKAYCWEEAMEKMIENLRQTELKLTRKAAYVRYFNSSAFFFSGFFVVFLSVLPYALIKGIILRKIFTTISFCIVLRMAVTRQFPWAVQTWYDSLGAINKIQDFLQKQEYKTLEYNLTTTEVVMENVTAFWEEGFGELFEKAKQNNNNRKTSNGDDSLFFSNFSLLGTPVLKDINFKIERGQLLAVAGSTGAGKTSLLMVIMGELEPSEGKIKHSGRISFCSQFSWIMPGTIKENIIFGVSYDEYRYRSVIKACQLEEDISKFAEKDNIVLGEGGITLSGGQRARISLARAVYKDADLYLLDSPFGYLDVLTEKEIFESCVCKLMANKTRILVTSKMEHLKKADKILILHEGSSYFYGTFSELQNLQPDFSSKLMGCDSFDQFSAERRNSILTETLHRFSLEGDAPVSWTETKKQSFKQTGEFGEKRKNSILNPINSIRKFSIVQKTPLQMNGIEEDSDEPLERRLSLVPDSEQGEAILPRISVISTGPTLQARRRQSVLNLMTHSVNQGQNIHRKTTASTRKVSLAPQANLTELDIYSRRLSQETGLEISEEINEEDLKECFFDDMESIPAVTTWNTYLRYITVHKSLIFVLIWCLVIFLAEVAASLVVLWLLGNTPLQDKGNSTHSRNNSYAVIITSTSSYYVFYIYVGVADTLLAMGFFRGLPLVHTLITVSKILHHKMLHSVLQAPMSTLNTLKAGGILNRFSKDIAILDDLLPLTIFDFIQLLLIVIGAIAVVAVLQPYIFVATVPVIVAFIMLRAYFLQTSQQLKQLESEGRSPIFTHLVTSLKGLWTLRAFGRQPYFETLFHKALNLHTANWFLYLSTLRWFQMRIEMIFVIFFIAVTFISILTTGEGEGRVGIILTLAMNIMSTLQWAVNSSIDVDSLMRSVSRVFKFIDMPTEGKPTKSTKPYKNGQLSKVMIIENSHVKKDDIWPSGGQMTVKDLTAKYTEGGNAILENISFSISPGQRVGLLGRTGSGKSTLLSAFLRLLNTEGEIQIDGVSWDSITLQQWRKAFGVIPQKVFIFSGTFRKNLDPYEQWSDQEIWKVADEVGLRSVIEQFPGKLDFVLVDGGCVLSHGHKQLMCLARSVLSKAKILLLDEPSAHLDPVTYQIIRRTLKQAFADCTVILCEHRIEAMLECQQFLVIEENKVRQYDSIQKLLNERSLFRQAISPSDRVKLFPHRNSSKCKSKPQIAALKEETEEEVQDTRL

[2] = test system: scopolamine-induced dry eye mouse model; test: Tear volume in scopolamine-induced dry eye mouse model; format: in vivo; conditions: DED mice; 5 μL eye drops three times a day for 10 days; 16d 2060 μM, 0.3% diquafosol sodium
IL-17 mRNA = conditions: mouse, in vivo
[3] = test system: scopolamine-induced dry eye mouse model; test: Corneal erosion grading in scopolamine-induced dry eye mouse model; format: in vivo; conditions: DED mice; 16d 2060 μM three times a day for 10 days; compared to control group
[4] = format: in vivo, New Zealand White Rabbit; conditions: rabbit; for AUC0-24 / AUC0-inf / AUC0-last: 0.1 mg/eye
[5] = Maximum solubility for eye drop administration; format: physicochemical
IL-1β mRNA = conditions: mouse, in vivo
[6] = test system: volume-regulated anion channel (VRAC); test: VRAC activity by YFP fluorescence quenching assay; format: cell-based; conditions: 16d 30 μM, VI-116 10 μM; hypotonic solution 5 min
intracellular cAMP = test: Intracellular cAMP measurement in CHO-K1 cells; format: cell-based; conditions: 30 μM, 10 min, IBMX 100 μM, compared to the control
[7] = test system: corneal epithelial (CorE) cells; test: Corneal epithelial cytotoxicity test; format: cell-based, human; conditions: 30 μM, 48 h, MTS assay
[8] = test system: conjunctival epithelial (ConjE) cells; test: Conjunctival epithelial cytotoxicity test; format: cell-based, human; conditions: 30 μM, 48 h, MTS assay
[9] = test system: normal female C57BL/6J mice; test: Tear volume in normal mice; format: in vivo, mouse; conditions: for effect on tear volume: 16d up to 1 mM, Cact-3 up to 72 μM
TNF-α mRNA = conditions: mouse, in vivo
MMP-2 mRNA = conditions: mouse, in vivo
human ANO1 = molecular target: T1, human ANO1 (Homo sapiens, UniProt Q5XXA6); test: ANO1 apical membrane current in FRT cells expressing human ANO1; format: cell-based; conditions: 16d 30 μM, Ani9 10 μM; ANO1 activated by 100 μM ATP
T1 sequence (Q5XXA6 1-986): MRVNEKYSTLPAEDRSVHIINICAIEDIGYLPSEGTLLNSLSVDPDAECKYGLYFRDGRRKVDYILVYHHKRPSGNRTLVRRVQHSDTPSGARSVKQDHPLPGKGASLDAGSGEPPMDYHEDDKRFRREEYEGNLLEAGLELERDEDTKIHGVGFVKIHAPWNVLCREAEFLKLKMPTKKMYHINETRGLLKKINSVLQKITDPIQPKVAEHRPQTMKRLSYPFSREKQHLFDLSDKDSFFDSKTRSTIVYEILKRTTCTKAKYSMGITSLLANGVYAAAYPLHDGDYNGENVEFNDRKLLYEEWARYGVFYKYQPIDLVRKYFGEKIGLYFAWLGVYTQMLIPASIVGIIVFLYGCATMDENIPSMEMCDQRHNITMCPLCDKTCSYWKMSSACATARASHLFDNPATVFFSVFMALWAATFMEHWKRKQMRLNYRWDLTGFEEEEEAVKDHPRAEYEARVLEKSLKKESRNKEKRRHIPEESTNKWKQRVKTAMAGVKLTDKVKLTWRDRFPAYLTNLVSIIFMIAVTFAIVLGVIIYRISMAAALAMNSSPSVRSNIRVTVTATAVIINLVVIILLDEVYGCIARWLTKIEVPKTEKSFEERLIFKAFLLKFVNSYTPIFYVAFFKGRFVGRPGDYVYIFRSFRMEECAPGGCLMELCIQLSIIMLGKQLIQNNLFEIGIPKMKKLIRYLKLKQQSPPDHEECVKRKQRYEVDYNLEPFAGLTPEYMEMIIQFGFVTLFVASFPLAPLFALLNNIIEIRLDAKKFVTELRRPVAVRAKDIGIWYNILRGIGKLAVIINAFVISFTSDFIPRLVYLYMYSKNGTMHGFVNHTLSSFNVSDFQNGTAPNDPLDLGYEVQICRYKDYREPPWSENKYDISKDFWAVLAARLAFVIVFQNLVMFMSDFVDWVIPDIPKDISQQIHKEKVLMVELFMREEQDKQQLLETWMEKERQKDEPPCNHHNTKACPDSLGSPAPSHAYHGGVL

human CFTR [10] = molecular target: T2, human CFTR (Homo sapiens, UniProt P13569); test: Apical membrane current in FRT cells expressing human CFTR; format: cell-based; conditions: 10 μM CFTRinh-172
T2 sequence (P13569 whole entry): as the sequence (P13569 whole entry) above

human CFTR [11] = molecular target: T2, human CFTR; conditions: 20 μM CFTRinh-172; CHO-K1 cells expressing human CFTR
endogenous CFTR channels = endogenous CFTR channels (Homo sapiens, UniProt P13569); conditions: 10 μM CFTRinh-172; primary cultured human conjunctival epithelial cells
Chain of endogenous CFTR channels (P13569 whole entry): as the sequence (P13569 whole entry) above

fold more soluble than Cact-3 [1]: 88 fold
fold less potent than Cact-3 (human wild-type CFTR): 17 fold
SMILES: COc1ccc(-c2ccnc3cc(C(=O)Nc4ccc(C(=O)O)cc4)nn23)cc1OC [9a, 4-(7-(3,4-Dimethoxyphenyl)pyrazolo[1,5-a]pyrimidine-2-carboxamido)benzoic Acid]

solubility/YFP ratio, fold less than 9a ([1]; vs 9a): 2 fold
times more potent than 9a (human wild-type CFTR; YFP EC50 vs 9a): 7 times
SMILES: COc1ccc(-c2ccnc3cc(C(=O)Nc4ccc(C(=O)O)cc4F)nn23)cc1OC [9b, 4-(7-(3,4-Dimethoxyphenyl)pyrazolo[1,5-a]pyrimidine-2-carboxamido)-3-fluorobenzoic Acid]

Solubility [1]: completely insoluble
SMILES: COc1ccc(-c2ccnc3cc(C(=O)Nc4ccc(C(=O)N5CCOCC5)cc4)nn23)cc1OC [10a, 7-(3,4-Dimethoxyphenyl)-N-(4-(morpholine-4-carbonyl)phenyl)pyrazolo[1,5-a]pyrimidine-2-carboxamide]

fold more soluble than Cact-3 [1]: 4017 fold
fold more potent than 11a (human wild-type CFTR; YFP EC50 vs 11a): 13 fold
fold less potent than Cact-3 (human wild-type CFTR): 16 fold
SMILES: COc1ccc(-c2ccnc3cc(C(=O)Nc4ccc(C(=O)N5CCN(C)CC5)cc4)nn23)cc1OC.Cl [11c, 7-(3,4-Dimethoxyphenyl)-N-(4-(4-methylpiperazine-1-carbonyl)phenyl)pyrazolo[1,5-a]pyrimidine-2-carboxamide Hydrochloride]

fold more potent than 16a (human wild-type CFTR; YFP EC50 vs 16a): 7 fold
SMILES: COc1ccc(-c2ccnc3cc(C(=O)N4CCN(C(=O)c5ccccc5)CC4)nn23)cc1OC [16b, (4-Benzoylpiperazin-1-yl)(7-(3,4-dimethoxyphenyl)pyrazolo[1,5-a]pyrimidin-2-yl)methanone]

AUC0-24 ([4]; mean conjunctiva): 4734.0 ng·h/mL or ng·h/g
AUC0-inf ([4]; mean conjunctiva): 13741.0 ng·h/mL or ng·h/g
AUC0-last ([4]; mean conjunctiva): 9819.0 ng·h/mL or ng·h/g
AUC0-24 ([4]; mean cornea): 19409.0 ng·h/mL or ng·h/g
AUC0-inf ([4]; mean cornea): 35802.0 ng·h/mL or ng·h/g
AUC0-last ([4]; mean cornea): 28349.0 ng·h/mL or ng·h/g
period maintained in cornea and conjunctiva ([4]; cornea and conjunctiva): > 8 h
Solubility [5]: > 2000 µM
effect on ANO1 channel activity (human ANO1): did not affect
SMILES: COc1ccc(-c2ccnc3cc(C(=O)N4CCN(C(=O)c5ccccc5)[C@@H](C)C4)nn23)cc1OC [16d, (S)-(4-Benzoyl-3-methylpiperazin-1-yl)(7-(3,4-dimethoxyphenyl)pyrazolo[1,5-a]pyrimidin-2-yl)methanone]
effect on scopolamine-induced tear volume decrease [2]: significantly and almost completely restored
mRNA expression level of IL-17 (IL-17 mRNA): significantly decreased
effect on corneal erosion [3]: significantly reduced
adverse effects during the PK study ([4]; topical ocular administration 0.1 mg/eye): No adverse effects
mRNA expression level of IL-1β (IL-1β mRNA): significantly decreased
effect on VRAC channel activity [6]: did not affect
effect on intracellular cAMP level (intracellular cAMP): slightly increased
effect on cell viability of CorE [7]: did not affect
effect on cell viability of ConjE [8]: did not affect
Emax (tear volume) [9]: higher than Cact-3
effect on tear volume [9]: dose-dependent increase
mRNA expression level of TNF-α (TNF-α mRNA): significantly decreased
mRNA expression level of MMP-2 (MMP-2 mRNA): significantly decreased

Further lines, the compound ahead of its results:

SMILES: COc1ccc(-c2ccnc3cc(C(=O)Nc4ccc(OCCN5CCOCC5)cc4)nn23)cc1OC [5e, 7-(3,4-Dimethoxyphenyl)-N-(4-(2-morpholinoethoxy)phenyl)pyrazolo[1,5-a]pyrimidine-2-carboxamide]
Solubility [1]: completely insoluble

SMILES: COc1ccc(-c2ccnc3cc(C(=O)Nc4ccc(N5CCOCC5)cc4)nn23)cc1OC [5f, 7-(3,4-Dimethoxyphenyl)-N-(4-morpholinophenyl)pyrazolo[1,5-a]pyrimidine-2-carboxamide]
Solubility [1]: completely insoluble

SMILES: COC(=O)c1ccc(CNC(=O)c2cc3nccc(-c4ccc(OC)c(OC)c4)n3n2)cc1 [5g, Methyl 4-((7-(3,4-dimethoxyphenyl)pyrazolo[1,5-a]pyrimidine-2-carboxamido)methyl)benzoate]
fold less potent than 5d (human wild-type CFTR; YFP EC50 vs 5d): 34 fold

SMILES: COc1ccc(-c2ccnc3cc(C(=O)NCc4ccc(N5CCOCC5)cc4)nn23)cc1OC [5h, 7-(3,4-Dimethoxyphenyl)-N-(4-morpholinobenzyl)pyrazolo[1,5-a]pyrimidine-2-carboxamide]
fold less potent than 5f (human wild-type CFTR; YFP EC50 vs 5f): 101 fold

SMILES: O=C(O)c1ccc(/C=C2\SC(=S)N(c3cccc(C(F)(F)F)c3)C2=O)cc1 [CFTRinh-172]
block of 16d-induced CFTR chloride current (human CFTR [10]): completely blocked
inhibition of 16d-induced CFTR whole-cell currents (human CFTR [11]): completely inhibited
inhibition of 16d-induced CFTR current (short-circuit current) (endogenous CFTR channels): fully inhibited

SMILES: CCOc1ccc(NC(=O)c2cc3nccc(-c4ccc(OC)c(OC)c4)n3n2)cc1 [compound 1, 7-(3,4-Dimethoxyphenyl)-N-(4-ethoxyphenyl)pyrazolo[1,5-a]pyrimidine-2-carboxamide]
Solubility [5]: 72 µM (≈ 30.1 µg/mL)
solubility at 90 min ([1]; PBS, pH 7.5): 0.059 µM (≈ 0.0247 µg/mL)
time of maximal tear volume after administration ([9]; 2.5 μL eye drops, once): 3 h
effect on tear volume [9]: dose-dependent increase

SMILES: O=c1ccn([C@@H]2O[C@H](COP(=O)(O)OP(=O)(O)OP(=O)(O)OP(=O)(O)OC[C@H]3O[C@@H](n4ccc(=O)[nH]c4=O)[C@H](O)[C@@H]3O)[C@@H](O)[C@H]2O)c(=O)[nH]1 [diquafosol, reference compound]
effect on scopolamine-induced tear volume decrease [2]: significant recovery
mRNA expression level of IL-17 (IL-17 mRNA): significantly reduced
mRNA expression level of TNF-α (TNF-α mRNA): significantly reduced
mRNA expression level of MMP-2 (MMP-2 mRNA): significantly reduced
